Results on 9 compounds are retold here after US9216968B2, “Heterocyclic derivative and pharmaceutical drug” (NIPPON SHINYAKU CO., LTD., priority 2011, dated 2015).

One assay has as its target human mPGES-1 (Homo sapiens (Human), UniProt O14684). In words: mPGES-1 inhibiting activity (microsome fractions, PGE2 by HTRF). It is filed as biochemical. The conditions noted are these: microsomes from CHO-K1 cells transfected with human mPGES-1; PGH2 1 μM, 4° C., 60 seconds; read-out: mPGES-1 Inhibition IC50. In outline:
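PGE2 formation read by HTRF after 60 s at 4 °C with 1 μM PGH2 substrate, following 20 min compound preincubation (1% DMSO) with human mPGES-1 microsomes from transfected CHO-K1 cells. Buffer: potassium phosphate, reduced glutathione, pH 7.4; IC50 from activity relative to enzyme-free blank.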
(In general: Time-resolved FRET reads energy transfer from a long-lived donor to a nearby acceptor.)

Another assay has as its system A549 cells. In words: Inhibition of PGE2 production in A549 cell (IL-1β stimulated). The assay is classed as cell-based, human. To be noted: Homo sapiens, A549, 24 h, IL-1β 5 ng/well, PGE2 in culture medium. An outline of the steps:
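After IL-1β (5 ng/well) stimulation for 24 h at 37 °C, following a 60-min compound pretreatment in RPMI with 3% FBS, medium PGE2 (HTRF) and PGF2α (EIA) from human A549 cells were quantified. 100% activity set as IL-1β-induced minus basal production; IC50 calculated.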

For orientation: IC50 means the point on the concentration scale where inhibition reaches its midpoint.

Structures can show the parent of a compound that is named as a salt. Bounds are passed on as bounds.

Chain of human mPGES-1 (O14684 whole entry): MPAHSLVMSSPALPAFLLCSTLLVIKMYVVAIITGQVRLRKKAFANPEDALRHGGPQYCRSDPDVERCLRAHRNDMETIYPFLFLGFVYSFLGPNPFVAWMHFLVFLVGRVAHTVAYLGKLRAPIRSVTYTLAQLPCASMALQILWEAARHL

For `COCC(C)(C)CNc1nc2c(C(=O)Nc3cccc(Cl)c3C)cc(NC(=O)c3ccccc3C(F)(F)F)cc2[nH]1` [Example 163, N-(3-Chloro-2-methylphenyl)-2-[(3-methoxy-2,2-dimethylpropyl)amino]-6-({[2-(trifluoromethyl)phenyl]carbonyl}amino)-1H-benzimidazole-4-carboxamide hydrochloride], the concentration for half-maximal inhibition (IC50) at human mPGES-1 was determined as 5.9 nM; in the assay with A549 cells, 23.2 nM.
In the case of `COCc1nc2c(C(=O)NCC3CCCCCC3)cc(NC(=O)c3ccccc3C(F)(F)F)cc2[nH]1` [Example 231, N-(Cycloheptylmethyl)-2-(methoxymethyl)-6-({[2-(trifluoromethyl)phenyl]carbonyl}amino)-1H-benzimidazole-4-carboxamide hydrochloride], the IC50 on human mPGES-1 was found to be 1.9 nM; with A549 cells, 150 nM.
In the same order, the values of `Cc1c(Cl)cccc1NC(=O)c1cc(NC(=O)c2c(F)cccc2Cl)cc2[nH]c(NC[C@H]3CCCO3)nc12` [Example 199, 6-{[(2-Chloro-6-fluorophenyl)-carbonyl]amino}-N-(3-chloro-2-methylphenyl)-2-{[(2R)-tetrahydrofuran-2-ylmethyl]amino}-1H-benzimidazole-4-carboxamide hydrochloride] are 9.7 nM and 43.2 nM.
In the same order, the values of `COCc1nc2c(C(=O)Nc3cccc(C#N)c3C)cc(NC(=O)c3ccccc3C(F)(F)F)cc2[nH]1` [Example 41, N-(3-Cyano-2-methylphenyl)-2-(methoxymethyl)-6-({[2-(trifluoromethyl)phenyl]carbonyl}amino)-1H-benzimidazole-4-carboxamide] are 52.5 nM and 145 nM.
For `Cc1c(Cl)cccc1NC(=O)c1cc(NC(=O)c2ccccc2C(F)(F)F)cc2[nH]c(NCC(C)(C)O)nc12` [Example 167, N-(3-Chloro-2-methylphenyl)-2-[(2-hydroxy-2-methylpropyl)amino]-6-({[2-(trifluoromethyl)phenyl]carbonyl}amino)-1H-benz imidazole-4-carboxamide hydrochloride], in that order: 1 nM and 217 nM.
Regarding `O=C(Nc1cc2c(c(C(=O)NC3CCCCC3)c1)OCC2)c1ccccc1C(F)(F)F` [Example 7, N-Cyclohexyl-5-({[2-(trifluoromethyl)phenyl]carbonyl}amino)-2,3-dihydro-1-benzofuran-7-carboxamide], the IC50 on human mPGES-1 turned out to be 105 nM; with A549 cells, 342 nM.
`Cc1c(Cl)cccc1NC(=O)c1cc(NC(=O)c2ccccc2C(F)(F)F)cc2[nH]c(NCCN3CCCC3)nc12` [Example 152, N-(3-Chloro-2-methylphenyl)-2-{[2-(pyrrolidin-1-yl)ethyl]amino}-6-({[2-(trifluoromethyl)phenyl]carbonyl}amino)-1H-benz imidazole-4-carboxamide hydrochloride]: the IC50 at human mPGES-1 was determined as 31.6 nM; with A549 cells, 854 nM.
For `Cc1c(Cl)cccc1NC(=O)c1cc(NC(=O)c2cc(C#CC3CC3)ccc2Cl)cc2[nH]c(N(C)C)nc12` [Example 188, 6-({[2-Chloro-5-(cyclopropylethynyl)phenyl]carbonyl}amino)-N-(3-chloro-2-methylphenyl)-2-(dimethylamino)-1H-benzimidazole-4-carboxamide hydrochloride], in that order: 457 nM and 1020 nM.
As to `CC(=O)N1CC(c2nc3c(C(=O)Nc4cccc(Cl)c4C)cc(NC(=O)c4ccccc4C(F)(F)F)cc3[nH]2)C1` [Example 68, 2-(1-Acetylazetidin-3-yl)-N-(3-chloro-2-methylphenyl)-6-({[2-(trifluoromethyl)phenyl]carbonyl}amino)-1H-benzimidazole-4-carboxamide hydrochloride], the IC50 at human mPGES-1 is 63.4 nM; with A549 cells, greater than 10000 nM.
